test system: Recombinant amyloidogenic full length light chain protein WIL-FL T46L; test: Differential Scanning Fluorimetry Assay (thermal shift assay); format: binding; conditions: Thermal Shift Protein Stability Kit (Biotium), 96-well plates; protein and compounds incubated at RT for 30 min before adding the dye; also: test concentration or dose not given here
Experimental: Differential Scanning Fluorimetry Assay
The stabilization effects the compounds have on the immunoglobulin light chain protein were quantitively measured using a thermal shift assay. Recombinant amyloidogenic full length light chain protein WIL-FL T46L was produced in E. coli, purified, and used in the assay. The Thermal Shift Protein Stability Kit from Biotium was used and the assay was done in 96-well plates following the manufacturer's instructions. The protein and compounds were incubated at RT for 30 min before adding the dye and subjected to the thermal shift assay. The thermal stability (Tm) of each sample was then determined using standard curve fitting methods and compared to vehicle. Data are expressed as temperature shift: [Tm]compound−[Tm]vehicle.
Results • 0-0.5° C.=* • >0.5-1° C.=** • >1-1.5° C.=*** • >1.5-2.5° C.=**** • >2.5° C.=*****

| Structure (SMILES) | DSF temperature shift: [Tm]compound−[Tm]vehicle |
| --- | --- |
| Cc1cc(OCC2(c3ccccc3)CC2)cn2nc(C(O)CN3CC4(CCN(c5cc(F)ncn5)CC4)NC3=O)nc12 (stereo not drawn) [Compound 59] | **** (>1.5-2.5° C.=****) |
| COC(CN1CC2(CCN(c3ccnc(O)c3)CC2)NC1=O)c1nc2c(C)cc(OC[C@H](C)c3ccccc3)cn2n1 (stereo partly drawn) [Compound 138] | **** (>1.5-2.5° C.=****) |
| Cc1cc(OC[C@@H](C)c2ccccc2)cn2nc(CCN3CC4(CCN(c5nccn6cncc56)CC4)NC3=O)nc12 [Compound 12] | ***** (>2.5° C.=*****) |
| Cc1cc(OC[C@H](C)c2ccccc2)cn2nc(CCN3CC4(CCN(c5cccc(Cl)n5)CC4)NC3=O)nc12 [Compound 102] | *** (>1-1.5° C.=***) |
| Cc1cc(OCC2(c3ccccc3)CC2)cn2nc(C(O)CN3CC4(CCN(c5cccnc5C(F)(F)F)CC4)NC3=O)nc12 (stereo not drawn) [Compound 35] | **** (>1.5-2.5° C.=****) |
| Cc1cc(OC[C@H](C)c2ccccc2)cn2nc(C(O)CN3CC4(CN(c5ccnc(O)c5)C4)OC3=O)nc12 (stereo partly drawn) [Compound 81] | ***** (>2.5° C.=*****) |
| Cc1cc(OC[C@H](C)c2ccccc2)cn2nc(CCN3CC4(CCN(c5ncn(C)n5)CC4)NC3=O)nc12 [Compound 120] | **** (>1.5-2.5° C.=****) |
| Cc1cc(N2CCC(C)(c3ccccc3)C2)cn2nc(CCCN3C(=O)NC4(CCN(c5nccn6ccnc56)CC4)C3=O)nc12 (stereo not drawn) [Compound 17] | ***** (>2.5° C.=*****) |
| Cc1cc(OC[C@H](C)c2ccccc2)cn2nc(CCN3CC4(CCN(c5nccn6cnnc56)CC4)OC3=O)nc12 [Compound 116, (R)-8-([1,2,4]triazolo[4,3-a]pyrazin-8-yl)-3-(2-(8-methyl-6-(2-phenylpropoxy)-[1,2,4]triazolo[1,5-a]pyridin-2-yl)ethyl)-1-oxa-3,8-diazaspiro[4.5]decan-2-one] | **** (>1.5-2.5° C.=****) |
| Cc1cc(OC[C@H](C)c2ccccc2)cn2nc(C(C)CN3CC4(CN(c5ccnc(O)c5)C4)NC3=O)nc12 (stereo partly drawn) [Compound 68, 2-(2-hydroxy-4-pyridyl)-7-[2-[8-methyl-6-[(2R)-2-phenylpropoxy]-[1,2,4]triazolo[1,5-a]pyridin-2-yl]propyl]-2,5,7-triazaspiro[3.4]octan-6-one] | **** (>1.5-2.5° C.=****) |
| Cc1cc(OC[C@H](C)c2ccccc2)cn2nc(C(O)CN3CC4(CN(c5cccc(C(=O)O)n5)C4)NC3=O)nc12 (stereo partly drawn) [Compound 86] | **** (>1.5-2.5° C.=****) |
| Cc1cc(OCC2(c3ccccc3)CC2)cn2nc(C(O)CN3CC4(CCN(c5ccc(F)nc5)CC4)NC3=O)nc12 (stereo not drawn) [Compound 42] | **** (>1.5-2.5° C.=****) |
| Cc1cc(F)ncc1N1CCC2(CC1)CN(CC(O)c1nc3c(C)cc(OCC4(c5ccccc5)CC4)cn3n1)C(=O)N2 (stereo not drawn) [Compound 36] | **** (>1.5-2.5° C.=****) |
| Cc1cc(OC[C@H](C)c2ccccc2)cn2nc(CCN3CC4(CCN(c5cccnc5C(F)(F)F)CC4)NC3=O)nc12 [Compound 104] | ** (>0.5-1° C.=**) |
| Cc1cc(N2CC[C@@](C)(c3ccccc3)C2)cn2nc(C(O)CN3CC4(CN(c5cccc(O)n5)C4)NC3=O)nc12 (stereo partly drawn) [Compound 26] | ***** (>2.5° C.=*****) |
| Cc1nonc1C(=O)N1CCC2(CC1)CN(CC(O)c1nc3c(C)cc(OCC4(c5ccccc5)CC4)cn3n1)C(=O)N2 (stereo not drawn) [Compound 31] | **** (>1.5-2.5° C.=****) |
| Cc1cc(OC[C@H](C)c2ccccc2)cn2nc(CCN3CC4(CCN(c5ncc(F)cn5)CC4)NC3=O)nc12 [Compound 113] | ***** (>2.5° C.=*****) |
| Cc1cc(OC[C@H](C)c2ccccc2)cn2nc(C(O)CN3CC4(CCN(C5CCNC(=O)C5)CC4)NC3=O)nc12 (stereo partly drawn) [Compound 79] | **** (>1.5-2.5° C.=****) |
| Cc1ccc(N2CCC3(CC2)CN(CC(O)c2nc4c(C)cc(OCC5(c6ccccc6)CC5)cn4n2)C(=O)N3)cn1 (stereo not drawn) [Compound 128] | **** (>1.5-2.5° C.=****) |
| Cc1cc(OC[C@H](C)c2ccccc2)cn2nc(C(O)CN3CC4(CCN(c5nccn6cnnc56)CC4)NC3=O)nc12 (stereo partly drawn) [Compound 76] | ***** (>2.5° C.=*****) |
| Cc1cc(OCC2(c3ccccc3)CC2)cn2nc(C(O)CN3CC4(CCN(c5cncnc5)CC4)NC3=O)nc12 (stereo not drawn) [Compound 49] | **** (>1.5-2.5° C.=****) |
| Cc1cc(OCC2(c3ccccc3)CC2)cn2nc(C(O)CN3CC4(CCN(c5ccnc(F)n5)CC4)NC3=O)nc12 (stereo not drawn) [Compound 44] | ***** (>2.5° C.=*****) |
| Cc1cc(OCC2(c3ccccc3)CC2)cn2nc(C(O)CN3CC4(CCN(C(=O)Cn5nnnc5C)CC4)NC3=O)nc12 (stereo not drawn) [Compound 34] | **** (>1.5-2.5° C.=****) |
| Cc1cc(N2CCC3(CC2)CN(CC(O)c2nc4c(C)cc(OCC5(c6ccccc6)CC5)cn4n2)C(=O)N3)ccn1 (stereo not drawn) [Compound 18] | ***** (>2.5° C.=*****) |

| Structure (SMILES) | DSF temperature shift: [Tm]compound−[Tm]vehicle |
| --- | --- |
| Cc1cc(OC[C@H](C)c2ccccc2)cn2nc(CCN3CC4(CCN(c5ccc(C#N)cn5)CC4)NC3=O)nc12 [Compound 100] | **** (>1.5-2.5° C.=****) |
| COc1ccc(N2CCC3(CC2)CN(CCc2nc4c(C)cc(OC[C@H](C)c5ccccc5)cn4n2)C(=O)N3)c(C)n1 [Compound 141] | ** (>0.5-1° C.=**) |
| Cc1cc(N2CC[C@@](C)(c3ccccc3)C2)cn2nc(C(O)CN3CC4(CN(c5ccnc(O)c5)C4)NC3=O)nc12 (stereo partly drawn) [Compound 23] | ***** (>2.5° C.=*****) |
| Cc1cc(OC[C@H](C)c2ccccc2)cn2nc(C(O)CN3CC4(CCN(c5cncnc5)CC4)NC3=O)nc12 (stereo partly drawn) [Compound 75] | **** (>1.5-2.5° C.=****) |
| Cc1cc(OC[C@H](C)c2ccccc2)cn2nc(CCN3CC4(CCN(c5ncns5)CC4)NC3=O)nc12 [Compound 119] | **** (>1.5-2.5° C.=****) |
| Cc1cc(OC[C@H](C)c2ccccc2)cn2nc(CCN3CC4(CCN(C(=O)c5nncn5C)CC4)NC3=O)nc12 [Compound 93] | **** (>1.5-2.5° C.=****) |
| Cc1cc(OCC2(c3ccccc3)CC2)cn2nc(C(O)CN3CC4(CCN(c5cc(F)nc(F)c5)CC4)NC3=O)nc12 (stereo not drawn) [Compound 39] | ** (>0.5-1° C.=**) |
| COC(=O)c1cnc(N2CCC3(CC2)CN(CC(O)c2nc4c(C)cc(OCC5(c6ccccc6)CC5)cn4n2)C(=O)N3)c2nccn12 (stereo not drawn) [Compound 136] | ***** (>2.5° C.=*****) |
| Cc1nccnc1N1CCC2(CC1)CN(CCc1nc3c(C)cc(OC[C@H](C)c4ccccc4)cn3n1)C(=O)N2 [Compound 94] | **** (>1.5-2.5° C.=****) |
| C[C@]1(c2ccccc2)CCN(c2cc(CO)c3nc(C(O)CN4CC5(CN(c6ccnc(O)c6)C5)NC4=O)nn3c2)C1 (stereo partly drawn) [Compound 146] | ***** (>2.5° C.=*****) |
| Cc1cc(OC[C@H](C)c2ccccc2)cn2nc(C(O)CN3CC4(CN(c5ccnc(O)n5)C4)NC3=O)nc12 (stereo partly drawn) [Compound 85] | ***** (>2.5° C.=*****) |
| Cc1cc(OCC2(c3ccccc3)CC2)cn2nc(C(O)CN3CC4(CCN(c5nc(F)ccc5N)CC4)NC3=O)nc12 (stereo not drawn) [Compound 53] | **** (>1.5-2.5° C.=****) |
| Cc1cc(OC[C@@H](C)c2ccccc2)cn2nc(CCN3CC4(CCN(c5nccn6ccnc56)CC4)NC3=O)nc12 [Compound 11] | **** (>1.5-2.5° C.=****) |
| Cc1cc(OC[C@H](C)c2ccccc2)cn2nc(CCN3CC4(CCN(C(=O)C5(c6ccccn6)CC5)CC4)NC3=O)nc12 [Compound 90] | *** (>1-1.5° C.=***) |
| Cc1cc(N2CC[C@@](C)(c3ccccc3)C2)cn2nc(CCN3CC4(CN(c5ccnc(O)c5)C4)NC3=O)nc12 [Compound 27] | ***** (>2.5° C.=*****) |
| Cc1cc(N2CCC(C)(c3ccccc3)C2)cn2nc(CCCN3CC4(CCN(c5nccn6ccnc56)CC4)NC3=O)nc12 (stereo not drawn) [Compound 4] | ***** (>2.5° C.=*****) |
| Cc1cc(OC[C@H](C)c2ccccc2)cn2nc(C(C)(O)CN3CC4(CCN(C(=O)c5nncn5C)CC4)NC3=O)nc12 (stereo partly drawn) [Compound 65] | **** (>1.5-2.5° C.=****) |
| Cc1cc(OC[C@H](C)c2ccccc2)cn2nc(C(O)CN3CC4(CN(c5ccnc(O)c5)C4)NC3=O)nc12 (stereo partly drawn) [Compound 84] | ***** (>2.5° C.=*****) |
| Cc1cc(OCC2(c3ccccc3)CC2)cn2nc(C(O)CN3CC4(CCN(c5ccc(Cl)nc5)CC4)NC3=O)nc12 (stereo not drawn) [Compound 41] | **** (>1.5-2.5° C.=****) |
| Cc1cc(OC[C@H](C)c2ccccc2)cn2nc(C(O)CN3CC4(CCN(C(=O)c5ncn(C)n5)CC4)NC3=O)nc12 (stereo partly drawn) [Compound 69] | **** (>1.5-2.5° C.=****) |
| CNC(=O)c1cc(N2CCC3(CC2)CN(Cc2nc4c(C)cc(OC[C@H](C)c5ccccc5)cn4n2)C(=O)N3)ccn1 [Compound 134] | **** (>1.5-2.5° C.=****) |
| Cc1cc(OC[C@H](C)c2ccccc2)cn2nc(CCN3CC4(CCN(c5nccn6ccnc56)CC4)NC3=O)nc12 [Compound 10] | ***** (>2.5° C.=*****) |
| Cc1cc(OC[C@H](C)c2ccccc2)cn2nc(C(C)(O)CN3CC4(CCN(C(=O)Cc5ncnn5C)CC4)NC3=O)nc12 (stereo partly drawn) [Compound 66] | *** (>1-1.5° C.=***) |
| Cc1cc(OCC2(c3ccccc3)CC2)cn2nc(C(O)CN3CC4(CCN(C(=O)Cc5nnc[nH]5)CC4)NC3=O)nc12 (stereo not drawn) [Compound 32] | **** (>1.5-2.5° C.=****) |
